# Measured values published in PubChem BioAssay (NCI).
#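 Assay format: 96-well plates, 48-hour exposure. The concentration for full growth arrest is given as TGI.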
# How the values were obtained:
# Assay in all cases: NCI-60 cell line screen, 48 h
# A498 renal = test system: A498 renal
# EKVX NSCLC = test system: EKVX NSCLC
# HCT-116 colon = test system: HCT-116 colon
# HS 578T breast = test system: HS 578T breast
# MCF7 breast = test system: MCF7 breast
# MDA-MB-435 = test system: MDA-MB-435
# MOLT-4 leukemia = test system: MOLT-4 leukemia
# NCI-H460 lung = test system: NCI-H460 lung
# NCI-H522 lung = test system: NCI-H522 lung
# OVCAR-5 ovarian = test system: OVCAR-5 ovarian
# SF-268 CNS = test system: SF-268 CNS
# SF-295 CNS = test system: SF-295 CNS
# SK-MEL-2 melanoma = test system: SK-MEL-2 melanoma
# SN12C renal = test system: SN12C renal
# SNB-19 CNS = test system: SNB-19 CNS
# SR leukemia = test system: SR leukemia
# T-47D breast = test system: T-47D breast
# UO-31 renal = test system: UO-31 renal
# CCRF-CEM leukemia = test system: CCRF-CEM leukemia
Structure (SMILES),TGI (A498 renal) [µM],TGI (EKVX NSCLC) [µM],TGI (HCT-116 colon) [µM],TGI (HS 578T breast) [µM],TGI (MCF7 breast) [µM],TGI (MDA-MB-435) [µM],TGI (MOLT-4 leukemia) [µM],TGI (NCI-H460 lung) [µM],TGI (NCI-H522 lung) [µM],TGI (OVCAR-5 ovarian) [µM],TGI (SF-268 CNS) [µM],TGI (SF-295 CNS) [µM],TGI (SK-MEL-2 melanoma) [µM],TGI (SN12C renal) [µM],TGI (SNB-19 CNS) [µM],TGI (SR leukemia) [µM],TGI (T-47D breast) [µM],TGI (UO-31 renal) [µM],TGI (CCRF-CEM leukemia) [µM]
COc1ccc(N2CN3OC(=O)N(c4ccc(OC)cc4)[C@@]3(c3ccccc3)C2)cc1,> 100,> 100,> 100,> 100,> 100,7.12,> 100,> 100,> 100,> 100,> 100,92.9,45.1,> 100,> 100,66.2,69.2,> 100,–
CC1OC(OC2C(OC(=O)[C@]34CCC(C)(C)C[C@H]3C3=CC[C@@H]5[C@@]6(C)CC[C@H](OC7OC(C(=O)O)C(O)C(O)C7O)C(C)(C)[C@@H]6CC[C@@]5(C)[C@]3(C)C[C@H]4O)OCC(O)C2O)C(O)C(O)C1OC1OCC(OC2OCC(O)C(O)C2O)C(O)C1O (some centres not stated),3.06,15.2,16.6,37.9,17.6,17.8,37.1,32.6,16.5,20.1,26.3,22.2,11.7,5.68,18.4,53.9,26.3,4.84,–
CO[C@]1(c2ccc([N+](=O)[O-])cc2)Oc2ccccc2C(=O)[C@@]1(Nc1ccc(C=O)cc1)OC,> 10,> 10,> 10,> 10,> 10,> 10,> 10,> 10,–,> 10,> 10,> 10,> 10,> 10,> 10,> 10,> 10,> 10,> 10
C/C(=C\CO)CC/C=C(\C)CNc1c(F)c(F)c(F)c(F)c1F,–,98.3,> 100,74.6,70.1,53.8,> 100,> 100,46.3,> 100,67.3,52.9,48.6,41.2,75,74.9,> 100,80.8,> 100
O=c1c2cccnc2n2n1Cc1ccccc1C2,> 100,> 100,> 100,> 100,> 100,> 100,> 100,> 100,> 100,> 100,> 100,> 100,–,> 100,–,> 100,> 100,> 100,> 100
C1=CC2(C=CC13O[C@H](C1CCCCC1)[C@@H](C1CCCCC1)O3)O[C@H](C1CCCCC1)[C@@H](C1CCCCC1)O2,> 50,–,> 50,> 50,> 50,> 50,> 50,> 50,–,> 50,> 50,> 50,> 50,> 50,> 50,> 50,> 50,> 50,–
O=[N+]([O-])C(=C(Cl)Cl)C(Cl)=C(Cl)Cl,14.9,11.2,0.849,3.29,0.992,1.07,0.175,5.21,< 0.0106,3.94,4.92,9.54,3.24,2.22,11.2,> 100,0.289,2.94,–
N#CC(C#N)=C1C(=Cc2ccc(OCCCCCCCCCCSSCCCCCCCCCCOc3ccc(C=C4C(=C(C#N)C#N)c5ccccc5C4=C(C#N)C#N)cc3)cc2)C(=C(C#N)C#N)c2ccccc21,48.5,43.1,30.8,52.4,48,> 100,80,44.7,34.7,35.5,55.1,45.7,64,–,–,68,> 100,40.2,–
O=C1OCN(c2ccccc2)C12CCN(Cc1ccccc1)CC2,–,> 100,> 100,55.4,> 100,31.2,36.6,54.5,–,> 100,> 100,31.1,48.4,> 100,> 100,> 100,63.8,> 100,48.7
CN(Cc1cnc2nc(N)nc(N)c2n1)c1ccc(C(=O)NCCS(=O)(=O)O)cc1,> 100,> 100,> 100,> 100,> 100,> 100,> 100,> 100,> 100,> 100,> 100,> 100,> 100,> 100,> 100,> 100,> 100,> 100,–
CC(=O)Nc1oc(C)c(C)c1S(=O)(=O)c1ccc(Cl)cc1,> 100,> 100,> 100,93.6,> 100,> 100,> 100,> 100,> 100,> 100,> 100,> 100,85.6,–,> 100,> 100,> 100,> 100,> 100
Cn1c(=O)c2c3ccccc3n(C)c2n(C)c1=O,> 100,> 100,> 100,> 100,> 100,> 100,> 100,–,> 100,> 100,> 100,> 100,> 100,> 100,> 100,> 100,> 100,> 100,> 100
COc1cccc(-c2nc3ccccc3c(=O)[nH]2)c1,51.6,87.7,60.1,47.9,43.1,28.1,> 100,42,60.8,> 100,44.8,88.9,> 100,82.2,46.7,> 100,50.5,45.2,–
CN(C)CCNc1ccc([N+](=O)[O-])c2sc3ccccc3c(=O)c12,–,25.2,11.3,38.8,15.2,27.4,> 100,7.49,5.15,14.6,48.8,> 100,27.9,> 100,43.2,22.9,> 100,30.8,> 100
Nc1ncc(Br)c(NCC2(CO)CCC2)n1,> 100,> 100,> 100,> 100,> 100,> 100,> 100,> 100,> 100,> 100,> 100,> 100,> 100,> 100,–,> 100,63.4,> 100,> 100
CN1Cc2ccccc2S(=O)(=O)n2cccc2C1=O,> 100,> 100,> 100,> 100,> 100,> 100,> 100,> 100,> 100,> 100,–,> 100,> 100,> 100,–,> 100,> 100,> 100,> 100
COC(=O)NC(Nc1ccccn1)(C(F)(F)F)C(F)(F)F,> 100,> 100,> 100,> 100,> 100,> 100,> 100,> 100,> 100,> 100,> 100,–,> 100,–,> 100,> 100,> 100,> 100,> 100
CN(C)c1ccc(C2CC(c3ccc4ccccc4c3O)=NN2)cc1 (configuration not stated),66.8,–,> 100,> 100,> 100,> 100,92,> 100,85.5,> 100,> 100,> 100,> 100,> 100,–,51.7,> 100,> 100,83.3
O=C(C1OC1c1ccc(Cl)cc1)C12CC3CC(CC(C3)C1)C2 (configuration not stated),46.7,56.3,28.8,73.9,73.9,33.1,51.9,31.8,42.5,50.8,53,58.6,43.6,32.2,> 100,–,> 100,41.9,52.3
CCOC(=O)c1c(SC(=O)c2ccc(C(C)(C)C)cc2)n(-c2ccccc2)c(=S)n(-c2ccccc2)c1=O,> 100,> 100,> 100,> 100,> 100,> 100,> 100,> 100,> 100,> 100,> 100,> 100,–,> 100,> 100,> 100,> 100,–,> 100
S=C(N1CCN(c2ccc(Cl)c(Cl)c2)CC1)N1CCN(c2ccc(Cl)c(Cl)c2)CC1,–,15.2,19.4,26,24,29,19.9,–,22.8,44.7,32.4,22.2,41.7,–,26.7,5.82,23.3,25.8,9.44
Cc1c(-c2ccc(O)cc2)n(CCCCCCNCCOC(=O)NCCCc2ccc(N(CCCl)CCCl)cc2)c2ccc(O)cc12,28.7,9.89,2.94,7.49,2.23,3.21,2.92,5.05,3.44,28.9,3.45,6.85,23.8,6.22,28.1,3.18,5.8,–,6.67
Nc1ccccc1-c1noc(=O)[nH]1,> 100,> 100,> 100,> 100,> 100,> 100,> 100,–,> 100,> 100,> 100,> 100,> 100,> 100,> 100,> 100,> 100,> 100,> 100
CCCN(CCC)CCc1ccc(OC2=CCN(C)CC2)cc1,–,> 100,> 100,> 100,> 100,> 100,> 100,–,67,> 100,> 100,> 100,> 100,> 100,> 100,81.7,> 100,88.3,> 100
CC1OC(OC2C(O[C@H]3CC[C@@H]4C(=CC[C@@H]5[C@@]4(C)C(=O)C[C@]4(C)[C@@H]([C@H](C)CC[C@@H](O)C(C)(C)O)CC[C@@]54C)C3(C)C)OC(CO)C(O)C2O)C(O)C(O)C1O (some centres not stated),> 100,> 100,> 100,> 100,> 100,> 100,> 100,> 100,> 100,> 100,> 100,> 100,> 100,> 100,> 100,–,> 100,> 100,> 100
